Experimental data as given in ChEMBL document CHEMBL1201862, “PubChem BioAssay data set” (2004).
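Values below derive from 48-hour exposures of cells grown in 96-well plates, with endpoints linearly interpolated between the two concentrations bracketing the appropriate inhibition level. GI50 = concentration required for 50% inhibition of growth.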 Active and inactive are the calls of the source. Rule as the data show it: active = GI50 up to about 1.1 µM and inactive = higher.

Experiments:
Experiment in all cases: inhibition of tumour cell growth, NCI panel, 48 h
[1] = system: HOP-18
[2] = system: DU-145
[3] = system: NCI/ADR-RES
[4] = system: K562
[5] = system: NCI-H460
[6] = system: T47D
[7] = system: A498
[8] = system: BT-549
[9] = system: Hs-578T
[10] = system: UACC-257
[11] = system: M14
[12] = system: SNB-75
[13] = system: SK-MEL-5
[14] = system: HT-29
[15] = system: SF-539
[16] = system: SF-268
[17] = system: OVCAR-5
[18] = system: RPMI-8226
[19] = system: COLO 205
[20] = system: MDA-N

Measured: GI50

O=C(O)Cc1cccc2c(=O)cc(-c3ccccc3)oc12 [MITOFLAXONE]
inactive: [1] 156 µM | [2] > 940 µM | [3] 222 µM | [4] 239 µM | [5] > 250 µM | [6] > 250 µM | [7] 226 µM | [8] 204 µM | [9] 149 µM | [10] > 250 µM | [11] > 250 µM | [12] 212 µM | [13] 230 µM | [14] > 250 µM | [15] > 250 µM | [16] > 250 µM | [17] 242 µM | [18] 244 µM | [19] > 250 µM | [20] 385 µM
